Laboratory results from EP0445948A2, “Prostaglandins for inhibiting cartilage damage” (G.D. Searle & Co., priority 1990, dated 1991).

Tests used:
Format in all cases: cell-based
articular cartilage = assay: Pig articular cartilage organ culture: incorporation of 3H-leucine into protein (index of cell viability); details: 0IL1 + Miso. 200ng/ml; (SEM)
Description: (§1) A standard organ culture method was followed. Pieces of articular cartilage (4x1x1 mm) are cultured in DMEM and 5% fetal calf serum in an atmosphere of 5% CO₂ at 30°C. The culture medium was renewed every two days in an attempt to maintain the level of the compound undergoing evaluation. Integrity of the cartilage was determined by the retention of GAG using methylene blue dye technique, results were expressed as percentage remaining in the tissue at the end of the experiment. The synthetic activity of the chondrocytes was measured by the incorporation of^ 35SO₄ into GAG. In some of the evaluations incorporation of 3H-leucine into protein was measured as an index of cell viability.
(§2) Human recombinant IL1 alpha at a concentration of 1 ng/ml (nanograms/milliliter). At this concentration it was responsible for 68% loss in GAG content over the 8 day period whereas the control with either misoprostol vehicle or misoprostol at 200 ng/ml only lost between 4 and 7%. The cartilage was incubated in the presence of IL1 and misoprostol at 50, 100 and 200 ng/ml. […] At 100 ng/ml the GAG loss is reduced to 34 percent.

[1] = tested on: human articular cartilage; assay: Effect of misoprostol on IL1-induced inhibition of GAG synthesis (35SO4 incorporation after CPC precipitation); details: for 35SO4 uptake into GAG: 4 days, (SEM)
Description: The effect of misoprostol on the action of IL1 on human articular cartilage. This experiment was undertaken to determine the action of misoprostol on IL1 action on cartilage. A total of 160 replicates were performed. The study investigated the inhibition of synthesis of GAG by human articular cartilage over the IL1 concentration range 0.01 - 1 ng/ml. Misoprostol was investigated in the range of 0.1 to 100 ng/ml.
Cartilage from a person was used in this experiment. The experimental period was kept to 4 days with the medium being changed every 24 hours. The tissue was pulsed at 4 days with 5 µCi/ml ³⁵SO₄ in the conventional manner and its incorporation in GAG measured after CPC precipitation.

IL1-treated cartilage [2] = assay: Pig articular cartilage organ culture: incorporation of 35SO4 into GAG (synthetic activity of chondrocytes); details: (SEM)
Description: as §1, §2

IL1-treated cartilage [3] = assay: Pig articular cartilage organ culture: retention of GAG (methylene blue dye technique)
Description: as §1, §2

Compound: CCCCC(C)(O)C/C=C/[C@H]1[C@H](O)CC(=O)[C@@H]1CCCCCCC(=O)OC (mixture of isomers) [misoprostol, (+/-) methyl 11α,16-dihydroxy-16-methyl-9-oxoprost-13E-en-1-oate]
- Uptake of 3H Leucine (articular cartilage): 70.9 (4.8) cpm/mg
- protection against IL1-induced inhibition of GAG synthesis ([1]; 0.01 ng/ml IL1 (50% inhibition level), misoprostol at 10 ng/ml and at 100 ng/ml): significant protection
- protection against the action of 0.01 ng/ml hrIL1α ([1]; 0.01 ng/ml hrIL1α, misoprostol 100 ng/ml): complete protection
- protection against IL1-induced inhibition of GAG synthesis ([1]; 0.1 ng/ml IL1, misoprostol 100 ng/ml): modest protective activity
- protection against IL1-induced inhibition of GAG synthesis ([1]; 0.1 ng/ml IL1, misoprostol below 100 ng/ml): ineffective
- 35SO4 uptake into GAG ([1]; IL1 conc. 0.01 ng/ml, Misoprostol 0.1 ng/ml): 3086 (306) cpm/mg
- 35SO4 uptake into GAG ([1]; IL1 conc. 0.01 ng/ml, Misoprostol 1.0 ng/ml): 2919 (244) cpm/mg
- 35SO4 uptake into GAG ([1]; IL1 conc. 0.1 ng/ml, Misoprostol 0.1 ng/ml): 1113 (119) cpm/mg
- 35SO4 uptake into GAG ([1]; IL1 conc. 0.1 ng/ml, Misoprostol 1.0 ng/ml): 1062 (71) cpm/mg
- 35SO4 uptake into GAG ([1]; IL1 conc. 0.1 ng/ml, Misoprostol 10.0 ng/ml): 1102 (165) cpm/mg
- 35SO4 uptake into GAG ([1]; IL1 conc. 1.0 ng/ml, Misoprostol 0.1 ng/ml): 183 (23) cpm/mg
- 35SO4 uptake into GAG ([1]; IL1 conc. 1.0 ng/ml, Misoprostol 1.0 ng/ml): 171 (14) cpm/mg
- 35SO4 uptake into GAG ([1]; IL1 conc. 1.0 ng/ml, Misoprostol 10.0 ng/ml): 219 (28) cpm/mg
- 35SO4 uptake into GAG ([1]; IL1 conc. 1.0 ng/ml, Misoprostol 100.0 ng/ml): 193 (26) cpm/mg
- Uptake of 35 SO4 into GAG (IL1-treated cartilage [2]; 0IL1 + Miso. 200ng/ml): 29.6 (1.2) cpm/mg x 10^3
- Uptake of 35 SO4 into GAG (IL1-treated cartilage [2]; IL1 + Miso. 200ng/ml): 6.3 (0.8) cpm/mg x 10^3
- % Retention of GAG in tissue (IL1-treated cartilage [3]; 0IL1 + Miso. 200ng/ml, 8 day culture, (SEM)): 95.6 (1.9) %
- GAG loss (IL1-treated cartilage [3]; IL1 1 ng/ml + misoprostol 100 ng/ml, 8 days): 34%
- inhibition of the IL1 effect (GAG loss) (IL1-treated cartilage [3]; IL1 + misoprostol at 50, 100 and 200 ng/ml): highly significant inhibition
- direct effect on intact cartilage (IL1-treated cartilage [3]; misoprostol without IL1): no direct affect
